Read-outs that look alike come from different tables or passages of the source.
How the values were obtained:
[1] = Solubility of the THGP octamer in purified water or methanol, with pH of the solution; type: physicochemical
Description: To 100 mg of the THGP octamer obtained in (1), the process of adding purified water or methanol in small portions and stirring for 30 minutes at room temperature was repeated, and the volume of the solution was measured when the THGP octamer was visually observed to as completely dissolved. The solubility of the THGP octamer (Solute Amount (g)/Total Mass (g)×100%) was calculated from the measured volume. Furthermore, the pH of the solution was measured when the THGP octamer was completely dissolved.

[2] = Dissolution rate: time to visually complete dissolution in purified water; type: physicochemical
Description: 100 mg of Ge-132 and 100 mg of the THGP octamer were added to 10 mL of purified water, respectively, and the mixtures were stirred at 300 rpm at room temperature, and then the time required to be visually observed as completely dissolved was measured.

[3] = cited from earlier work
[4] = conventional THGP polymers, stated as known property

pH of the aqueous solution (in words) ([1]; dissolved in water) | solubility in methanol (Solute Amount (g)/Total Mass (g)×100%) ([1]; methanol, room temperature) [%] | solubility in water (Solute Amount (g)/Total Mass (g)×100%) ([1]; purified water, room temperature, visually complete dissolution) [%] | solubility (mass (g) of solute in 100 g of saturated solution) in water ([1]; water, 20° C.) [%] | pH of the aqueous solution ([1]; when completely dissolved in water) | time required to completely dissolve ([2]; 100 mg in 10 mL purified water, 300 rpm, room temperature) | dissolving time ([2]; water, 20° C., same conditions as Ge-132) | time required for the crystals to completely dissolve ([2]; 100 mg in 10 mL purified water (1% aqueous solution), 300 rpm, room temperature) [min] | time required for complete dissolution ([2]; 1% in water, 20° C.) [min] | Substance | solubility in organic solvents, such as methanol [3, 4] | solubility in water [3, 4] | solubility (mass (g) of solute in 100 g of saturated solution) in water ([3]; water, 20° C., known comparator value)
neutral | 1.4 | 58.8 | 58.8 | around 7.5 | approximately 10 seconds | approximately 10 seconds |  |  | 1,7,9,15-tetra(2′-sodium carboxyethylgermanium)-3,5,11,13-tetra-[sodium propanato(2-)-C^3′,O′]-germanium-2,4,6,8,10,12,14,16,17,18,19,20-dodecaoxa-pentacyclo[8.1^1,5.1^7,11.1^9,13.1^3,15.]icosane [THGP octamer] |  |  | 
 |  |  |  |  |  |  | ≥ 30 | ≥ 30 | poly-trans-[(2-carboxyethyl)germasesquioxane] [Ge-132] | insoluble | approximately 1% | approximately 1%

From patent US11981693B2, “Organogermanium compound” (ASAI Germanium Research Institute Co., Ltd., priority 2019, dated 2024)
